Patent US6586407B1, “Injectable pharmaceutical formulations for partricin derivatives” (Quatex N.V., priority 1998, dated 2003)

Test system: mice
Experiment: Single dose i.v. toxicity (LD50) in mice
Assay type: in vivo
Procedure: In single dose testing in mice, the i.v. 50% lethal dose (LD50) of the SPA-S-843 formulation, obtained according to Example 15, is increased from 70 mg/kg to >200 mg/kg

CNc1ccc(C(=O)CC(O)CC[C@H](C)C2OC(=O)C[C@H](O)CC(=O)C[C@H](O)C[C@H](O)C[C@H](O)C[C@H](O)C[C@]3(O)C[C@H](O)[C@@H](C(=O)NCCN(C)C)[C@H](C[C@@H](O[C@@H]4O[C@H](C)[C@@H](O)[C@H](NC(=O)CN(C)C)[C@@H]4O)/C=C/C=C/C=C/C=C/C=C/C=C/C=C/C2C)O3)cc1.N[C@@H](CC(=O)O)C(=O)O.N[C@@H](CC(=O)O)C(=O)O (stereo partly shown) [SPA-S-843, N-dimethylaminoacetyl-partricin A 2-dimethylamino-ethylamide diascorbate]
i.v. 50% lethal dose (LD50): 70 mg/kg
